These results are taken from US11091414B2, “Complexes of 1-methylcyclopropene with metal coordination polymer networks” (AGROFRESH INC., priority 2014, dated 2021).

Assay type in all cases: physicochemical
A short description of series [1]: Thermal stability by thermogravimetric analysis (TGA). The settings on record: 10° C./min to 600° C. under nitrogen. On the procedure:
This Example illustrates the thermal stability of MCPN. Thermogravimetric analysis (TGA) was conducted to determine the temperature that causes structural change in MCPN. […] TGA data was collected on a TA Q5000 Analyzer with a temperature ramping rate of 10° C./min from room temperature to 600° C. under nitrogen gas flow.

Series [2] can be described thus: Adsorption or inclusion level of 1-MCP in adsorbents/encapsulants (release in water, headspace GC). As for the experimental part:
This Example provides specific examples of methods for adsorbing 1-MCP into a MCPN. Adsorption of 1-MCP was carried out using both a modified solid method (method A) and a solution-based method (method B), as disclosed herein. The general protocol in both methods included a dual-vessel system, where 1-MCP was generated in the first vessel, also referred to as the generation vessel, and the adsorption took place in the second vessel, also referred to as the adsorption vessel. Before adsorption, 50 mg of adsorbent was first dried in a vacuum oven at 100° C. overnight and sealed in the adsorption vessel. […]
This Example illustrates some of the differences between the MCPNs of the present disclosure and prior art encapsulants (cyclodextrins). […] The percentage adsorbed or encapsulated was quantified by taking 55 mg of A1 or E4 and mixed with 25 ml of water in 500 ml sealed glass bottles to release 1-MCP.
Headspace sample was collected and injected into gas chromatography using methods described in Mir, “Harvest Maturity, Storage Temperature and 1-MCP Application Frequency Alter Firmness Retention and Chlorophyll Fluorescence of “Redchief Delicious” Apples,” Journal of American society of horticultural science, 2001, 126(5): 618-624). […] The peak area was used to quantify the concentration.

Series [3] can be described thus: Release rate of 1-MCP by hydration with water (method C). As for the experimental part:
This Example illustrates the release rate of 1-MCP from MCPNs and cyclodextrins. […] Encapsulation of sample S4 was carried out using methods A and D. Method C was used for the release of 1-MCP, where about 25 mg of S1 and S4 were hydrated with 25 mL of water in a 500 mL glass bottle under agitation. Headspace samples were withdrawn periodically to quantify the released 1-MCP.

Series [4] is described as follows: Stability in water by powder X-ray diffraction. The note with it: soaked in water 1 hour, 5 hours, 20 hours.

On to `OC[C@H]1O[C@@H]2O[C@H]3[C@H](O)[C@@H](O)[C@@H](O[C@H]4[C@H](O)[C@@H](O)[C@@H](O[C@H]5[C@H](O)[C@@H](O)[C@@H](O[C@H]6[C@H](O)[C@@H](O)[C@@H](O[C@H]7[C@H](O)[C@@H](O)[C@@H](O[C@H]8[C@H](O)[C@@H](O)[C@@H](O[C@H]1[C@H](O)[C@H]2O)O[C@@H]8CO)O[C@@H]7CO)O[C@@H]6CO)O[C@@H]5CO)O[C@@H]4CO)O[C@@H]3CO` [C-b, beta cyclodextrin], for which, in series [1], the Decomposing temperature is 280 °C.
In the case of `OC[C@H]1O[C@@H]2O[C@H]3[C@H](O)[C@@H](O)[C@@H](O[C@H]4[C@H](O)[C@@H](O)[C@@H](O[C@H]5[C@H](O)[C@@H](O)[C@@H](O[C@H]6[C@H](O)[C@@H](O)[C@@H](O[C@H]7[C@H](O)[C@@H](O)[C@@H](O[C@H]1[C@H](O)[C@H]2O)O[C@@H]7CO)O[C@@H]6CO)O[C@@H]5CO)O[C@@H]4CO)O[C@@H]3CO` [S4, Alpha cyclodextrin], the “Adsorption or inclusion level” value is on record as 0.05% in series [2] (1-MCP loaded by method A (solid method)) and 2.46% in series [2] (1-MCP loaded by method D (solution in pH 4.6 buffer, 50 mg S4/mL)). The Decomposing temperature in series [1] is 280 °C. In addition, the “Time to complete release of 1-MCP” value in series [3] (loaded by method A) was “almost instantaneously”; in series [3] (loaded by method D), no more than 40 min. For the same compound, the “% Released” value was 39% in series [3] (loaded by method D, 5 min); 62% in series [3] (loaded by method D, 15 min); 84% in series [3] (loaded by method D, 25 min); 100% in series [3] (loaded by method D, 40 min); 100% in series [3] (loaded by method D, 60 min). The “Change of X-ray pattern / structure after soaking in water” value in series [4] is “dramatic structure change after 1 hour soaking in water”.
